Experimental data as given in patent US9346815B2, “5-chloro-2-difluoromethoxyphenyl pyrazolopyrimidine compounds, compositions and methods of use thereof” (Genentech, Inc., priority 2014, dated 2016).

How the values were obtained:
[1] = tested on: JAK1-dependent STAT6 phosphorylation downstream of IL-13 stimulation in BEAS-2B human bronchial epithelial cells; assay: JAK1 pathway assay in BEAS-2B cells (IL-13-pSTAT6, MSD); type: cell-based; settings: read-out: IL13-pSTAT6 EC50 (uM)_BEAS-2B
Description: JAK1 Pathway Assay in Cell Lines was Carried Out as Follows:
Inhibitor potency (EC50) was determined in cell-based assays designed to measure JAK1 dependent STAT phosphorylation.
In one assay approach, TF-1 human erythroleukemia cells obtained from the American Type Culture Collection (ATCC; Manassas, Va.) were used to measure JAK1-dependent STAT6 phosphorylation downstream of IL-13 stimulation. Prior to use in the assays, TF-1 cells were starved of GM-CSF overnight in OptiMEM medium (Life Technologies, Grand Island, N.Y.) supplemented with 0.5% charcoal/dextran stripped fetal bovine serum (FBS), 0.1 mM non-essential amino acids (NEAA), and 1 mM sodium pyruvate. The assays were run in 384-well plates in serum-free OptiMEM medium using 300,000 cells per well. In a second assay approach, BEAS-2B human bronchial epithelial cells obtained from ATCC were plated at 100,000 cells per well of a 96-well plate one day prior to the experiment. The BEAS-2B assay was run in complete growth medium (bronchial epithelial basal medium plus bulletkit; Lonza; Basel, Switzerland).
Test compounds were serially diluted 1:2 in DMSO and then diluted 1:50 in medium just before use. Diluted compounds were added to the cells, for a final DMSO concentration of 0.2%, and incubated for 30 min (for the TF-1 assay) or 1 hr (for the BEAS-2B assay) at 37° C. Then, cells were stimulated with human recombinant cytokine at their respective EC90 concentrations, as previously determined for each individual lot. Cells were stimulated with IL-13 (R&D Systems, Minneapolis, Minn.) for 15 min at 37° C. The TF-1 cell reactions were stopped by the direct addition of 10× lysis buffer (Cell Signaling Technologies, Danvers, Mass.), whereas the BEAS-2B cell incubations were halted by the removal of medium and addition of 1× lysis buffer. The resultant samples were frozen in the plates at −80° C. Compound mediated inhibition of STAT6 phosphorylation was measured in the cell lysates using MesoScale Discovery (MSD) technology (Gaithersburg, Md.).

[2] = target: isolated recombinant JAK1 kinase domain (Homo sapiens (Human), UniProt P23458); assay: JAK1 enzyme assay (Caliper LabChip, peptide phosphorylation); type: biochemical; settings: isolated recombinant JAK1 kinase domain, 25 μM ATP
[3] = target: isolated recombinant JAK2 kinase domain (Homo sapiens (Human), UniProt O60674); assay: JAK2 enzyme assay (Caliper LabChip, peptide phosphorylation); type: biochemical; settings: 25 μM ATP
Chain of isolated recombinant JAK2 kinase domain (O60674 849-1124): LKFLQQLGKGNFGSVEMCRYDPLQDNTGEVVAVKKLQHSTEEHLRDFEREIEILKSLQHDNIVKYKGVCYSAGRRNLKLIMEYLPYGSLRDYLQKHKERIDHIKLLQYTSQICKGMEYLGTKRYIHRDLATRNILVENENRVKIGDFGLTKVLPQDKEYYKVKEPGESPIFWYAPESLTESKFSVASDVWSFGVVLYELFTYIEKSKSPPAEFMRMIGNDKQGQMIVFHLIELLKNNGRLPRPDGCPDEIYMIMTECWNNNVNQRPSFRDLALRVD

Chain of isolated recombinant JAK1 kinase domain (P23458 875-1153): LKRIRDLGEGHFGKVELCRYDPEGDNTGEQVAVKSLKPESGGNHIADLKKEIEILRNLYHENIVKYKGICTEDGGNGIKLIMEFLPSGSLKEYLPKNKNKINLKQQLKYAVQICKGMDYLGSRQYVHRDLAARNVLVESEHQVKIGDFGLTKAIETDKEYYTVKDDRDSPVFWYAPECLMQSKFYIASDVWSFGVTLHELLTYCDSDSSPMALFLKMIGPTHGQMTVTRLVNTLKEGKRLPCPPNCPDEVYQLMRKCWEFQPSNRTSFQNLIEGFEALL

Compound | Ki [2] | Ki [3] | EC50 [1]
CC(C)(C)OC(=O)N1CC[C@@H](n2cc(NC(=O)c3cnn4cccnc34)c(-c3cc(Cl)ccc3OC(F)F)n2)[C@H](O)C1 (single isomer, unassigned) [Example 354] | 0.72 nM | 1.05 nM | 0.024 µM
CC(C)(C)OC(=O)N1CC[C@H](n2cc(NC(=O)c3cnn4cccnc34)c(-c3cc(Cl)ccc3OC(F)F)n2)[C@@H](O)C1 (single isomer, unassigned) [Example 355] | 3.32 nM | 3.72 nM | 0.0678 µM
CC(C)(C)OC(=O)N1CC[C@@H](O)[C@H](n2cc(NC(=O)c3cnn4cccnc34)c(-c3cc(Cl)ccc3OC(F)F)n2)C1 (single isomer, unassigned) [Example 356] | 2.64 nM | 2.37 nM | 0.0396 µM
CC(C)(C)OC(=O)N1CC[C@H](O)[C@@H](n2cc(NC(=O)c3cnn4cccnc34)c(-c3cc(Cl)ccc3OC(F)F)n2)C1 (single isomer, unassigned) [Example 357] | 1.22 nM | 1.06 nM | 0.0216 µM
N#Cc1ccc(CN2CCN(C(=O)Cn3cc(NC(=O)c4cnn5cccnc45)c(-c4cc(Cl)ccc4OC(F)F)n3)CC2)cc1 [Example 238, N-[3-[5-chloro-2-(difluoromethoxy)phenyl]-1-[2-[4-[(4-cyanophenyl)methyl]piperazin-1-yl]-2-oxo-ethyl]pyrazol-4-yl]pyrazolo[1,5-a]pyrimidine-3-carboxamide] | 0.45 nM | 0.55 nM | 0.0218 µM
O=C(O)CN1CCN(C(=O)Cn2cc(NC(=O)c3cnn4cccnc34)c(-c3cc(Cl)ccc3OC(F)F)n2)CC1 [Example 310, 2-[4-(2-[3-[5-chloro-2-(difluoromethoxy)phenyl]-4-[pyrazolo[1,5-a]pyrimidine-3-amido]-1H-pyrazol-1-yl]acetyl)piperazin-1-yl]acetic acid] | 0.52 nM | 0.59 nM | 8.83 µM
O=C(O)CNC1CCN(CCn2cc(NC(=O)c3cnn4cccnc34)c(-c3cc(Cl)ccc3OC(F)F)n2)CC1 [Example 311, 2-[[1-(2-[3-[5-chloro-2-(difluoromethoxy)phenyl]-4-[pyrazolo[1,5-a]pyrimidine-3-amido]-1H-pyrazol-1-yl]ethyl)piperidin-4-yl]amino]acetic acid] | 1.25 nM | 0.73 nM | 2.6 µM
CSCCNCCn1cc(NC(=O)c2cnn3cccnc23)c(-c2cc(Cl)ccc2OC(F)F)n1 [Example 312, N-[3-[5-chloro-2-(difluoromethoxy)phenyl]-1-(2-[[2-(methylsulfanyl)ethyl]amino]ethyl)-1H-pyrazol-4-yl]pyrazolo[1,5-a]pyrimidine-3-carboxamide] | 0.4 nM | 0.32 nM | 0.0719 µM
O=C(Nc1cn(CCNCc2ccccn2)nc1-c1cc(Cl)ccc1OC(F)F)c1cnn2cccnc12 [Example 314, N-[3-[5-chloro-2-(difluoromethoxy)phenyl]-1-[2-[(pyridin-2-ylmethyl)amino]ethyl]-1H-pyrazol-4-yl]pyrazolo[1,5-a]pyrimidine-3-carboxamide] | 0.62 nM | 0.39 nM | 0.0995 µM
O=C(Nc1cn(CCNCc2ccncc2)nc1-c1cc(Cl)ccc1OC(F)F)c1cnn2cccnc12 [Example 315, N-[3-[5-chloro-2-(difluoromethoxy)phenyl]-1-[2-[(pyridin-4-ylmethyl)amino]ethyl]-1H-pyrazol-4-yl]pyrazolo[1,5-a]pyrimidine-3-carboxamide] | 0.72 nM | 0.4 nM | 0.0823 µM
CCOC(=O)CNC1CCN(C(=O)Cn2cc(NC(=O)c3cnn4cccnc34)c(-c3cc(Cl)ccc3OC(F)F)n2)CC1 [Example 364, ethyl 2-[[1-(2-[3-[5-chloro-2-(difluoromethoxy)phenyl]-4-[pyrazolo[1,5-a]pyrimidine-3-amido]-1H-pyrazol-1-yl]acetyl)piperidin-4-yl]amino]acetate] | – | 1.6 nM | 0.0952 µM

Second part, led by results:

Ki [2] | Ki [3] | Compound | EC50 [1]
– | 0.51 nM | O=C(Nc1cn(CCNCc2cccnc2)nc1-c1cc(Cl)ccc1OC(F)F)c1cnn2cccnc12 [Example 368, N-[3-[5-chloro-2-(difluoromethoxy)phenyl]-1-[2-[(pyridin-3-ylmethyl)amino]ethyl]-1H-pyrazol-4-yl]pyrazolo[1,5-a]pyrimidine-3-carboxamide] | 0.056 µM
– | 0.23 nM | C[C@@H](NCCn1cc(NC(=O)c2cnn3cccnc23)c(-c2cc(Cl)ccc2OC(F)F)n1)c1ccccc1 [Example 384, N-[3-[5-chloro-2-(difluoromethoxy)phenyl]-1-(2-[[(1R)-1-phenylethyl]amino]ethyl)-1H-pyrazol-4-yl]pyrazolo[1,5-a]pyrimidine-3-carboxamide] | 0.139 µM
– | 0.3 nM | C[C@H](NCCn1cc(NC(=O)c2cnn3cccnc23)c(-c2cc(Cl)ccc2OC(F)F)n1)c1ccccc1 [Example 385, N-[3-[5-chloro-2-(difluoromethoxy)phenyl]-1-(2-[[(1S)-1-phenylethyl]amino]ethyl)-1H-pyrazol-4-yl]pyrazolo[1,5-a]pyrimidine-3-carboxamide] | 0.163 µM
– | 0.89 nM | N#CC1CCN(C2CCN(C(=O)Cn3cc(NC(=O)c4cnn5cccnc45)c(-c4cc(Cl)ccc4OC(F)F)n3)CC2)C1 (stereo not drawn) [Example 409, N-(3-(5-chloro-2-(difluoromethoxy)phenyl)-1-(2-(4-(3-cyanopyrrolidin-1-yl)piperidin-1-yl)-2-oxoethyl)-1H-pyrazol-4-yl)pyrazolo[1,5-a]pyrimidine-3-carboxamide] | 0.0196 µM
0.41 nM | – | CN1CCN(C2CCN(C(=O)Cn3cc(NC(=O)c4cnn5cccnc45)c(-c4cc(Cl)ccc4OC(F)F)n3)CC2)CC1=O [Example 416, N-(3-(5-chloro-2-(difluoromethoxy)phenyl)-1-(2-(4-(4-methyl-3-oxopiperazin-1-yl)piperidin-1-yl)-2-oxoethyl)-1H-pyrazol-4-yl)pyrazolo[1,5-a]pyrimidine-3-carboxamide] | 0.0316 µM
– | 0.8 nM | O=C(CN1CCCCC1)Cn1cc(NC(=O)c2cnn3cccnc23)c(-c2cc(Cl)ccc2OC(F)F)n1 [Example 418, N-(3-(5-chloro-2-(difluoromethoxy)phenyl)-1-(2-oxo-3-(piperidin-1-yl)propyl)-1H-pyrazol-4-yl)pyrazolo[1,5-a]pyrimidine-3-carboxamide] | 0.0609 µM
0.4 nM | – | CN(C1CCN(C(=O)Cn2cc(NC(=O)c3cnn4cccnc34)c(-c3cc(Cl)ccc3OC(F)F)n2)CC1)[C@@H]1CCOC1 [Example 432, N-(3-(5-chloro-2-(difluoromethoxy)phenyl)-1-(2-(4-(methyl((R)-tetrahydrofuran-3-yl)amino)piperidin-1-yl)-2-oxoethyl)-1H-pyrazol-4-yl)pyrazolo[1,5-a]pyrimidine-3-carboxamide] | 0.0326 µM
0.59 nM | – | CN(CC1(C)OCCO1)C1CCN(C(=O)Cn2cc(NC(=O)c3cnn4cccnc34)c(-c3cc(Cl)ccc3OC(F)F)n2)CC1 [Example 438, N-(3-(5-chloro-2-(difluoromethoxy)phenyl)-1-(2-(4-(methyl((2-methyl-1,3-dioxolan-2-yl)methyl)amino)piperidin-1-yl)-2-oxoethyl)-1H-pyrazol-4-yl)pyrazolo[1,5-a]pyrimidine-3-carboxamide] | 0.015 µM
0.33 nM | – | CN(C1CCN(C(=O)Cn2cc(NC(=O)c3cnn4cccnc34)c(-c3cc(Cl)ccc3OC(F)F)n2)CC1)[C@H]1CCOC1 [Example 442, N-(3-(5-chloro-2-(difluoromethoxy)phenyl)-1-(2-(4-(methyl((S)-tetrahydrofuran-3-yl)amino)piperidin-1-yl)-2-oxoethyl)-1H-pyrazol-4-yl)pyrazolo[1,5-a]pyrimidine-3-carboxamide] | 0.0194 µM
0.45 nM | – | O=C(Nc1cn(Cc2cn(C3CCN(C4CCOCC4)CC3)nn2)nc1-c1cc(Cl)ccc1OC(F)F)c1cnn2cccnc12 [Example 457, N-(3-(5-chloro-2-(difluoromethoxy)phenyl)-1-((1-(1-(tetrahydro-2H-pyran-4-yl)piperidin-4-yl)-1H-1,2,3-triazol-4-yl)methyl)-1H-pyrazol-4-yl)pyrazolo[1,5-a]pyrimidine-3-carboxamide] | 0.0156 µM
0.3 nM | – | CN(C1CCN(C(=O)Cn2cc(NC(=O)c3cnn4cccnc34)c(-c3cc(Cl)ccc3OC(F)F)n2)CC1)C1COC1 [Example 459, N-(3-(5-chloro-2-(difluoromethoxy)phenyl)-1-(2-(4-(methyl(oxetan-3-yl)amino)piperidin-1-yl)-2-oxoethyl)-1H-pyrazol-4-yl)pyrazolo[1,5-a]pyrimidine-3-carboxamide] | 0.0075 µM
